Experiments:
mice = assay type: in vivo, mouse
Method: Mice were anesthetized with 1.5% isoflurane gas, and after achieving a stable blood pressure and pulse (about 10 minutes), they were injected intraperitoneally with 100 μl of […] 8 mM Cbi(II) (open circles, solid line), 8 mM NO-Cbi (filled circles, dashed line), or 8 mM nitroglycerin (squares, dotted lines) (panels a and b). Control refers to anesthetized mice who received 100 μl water (triangles, solid line). In panel C, 100 μl of 6 mM NO-Cbi was injected at 0, 32, and 64 minutes as indicated by the arrows. Systolic and diastolic blood pressures, and pulse rate, were measured at the indicated times on the tail artery using a non-invasive tail cuff. The percent change in mean arterial pressure (A and C), and pulse rate (B and C) are shown. For panels A and B, data are the mean±SD of results from five mice for NO-Cbi studied on separate days, and four mice for the other conditions. […] Data in panel C are the mean±SD of results from three mice studied on different days.
Pulse, and systolic and diastolic blood pressures, were measured non-invasively in the tail artery of mice by restraining mice on a warming platform maintained at ˜38° C. The base of the tail was placed in a computer-controlled pneumatic cuff, and the distal tail was placed in a sensor assembly consisting of a light emitting diode and a photodiode detector. Baseline measurements were made with the mice awake in a dark chamber. The mice were then anesthetized with 3% isoflurane in an induction chamber, and returned to the platform where they received 1.5% isoflurane with 2 liter per minute of oxygen via a nose cone; the isoflurane caused a small, but stable, drop in blood pressure. Drugs in a volume of 100 ul were injected intraperitoneally into the mice, and pulse and blood pressure were measured every 5-15 minute, taking five readings at each time point.
To determine the effect of NO release from NO-Cbi in an intact mammal, blood pressure and pulse of mice injected intraperitoneally with NO-Cbi were measured.

D. melanogaster = test: Nitrite and nitrate in extracts of injected flies; assay type: in vivo, Drosophila melanogaster; details: 1 μl of 1 mM NO-Cbi injected
Method: Nitrite and nitrate in extracts of NO-Cbi-injected flies were measured, and, as in the studies with CS-54 cells, a little over 50% of the injected NO as nitrite and nitrate was recovered (FIG. 3c). The nitrite/nitrate levels reached a maximum at 1 hour, and returned to that of water-injected flies at 4-5 hours (FIG. 3c). […] Nitrite and nitrate excretion likely explained the only partial recovery of NO.

[1] = incubated with excess heme; cited from earlier work
isolated mouse hearts = test: Coronary flow in isolated perfused mouse hearts (Langendorff)
Method: Hearts and aortas were removed from NIH Swiss mice anesthetized with sodium nembutal, and coronary flow was measured in the hearts using a Langendorff preparation (FIG. 5a) and relaxation of aortic rings was measured after inducing constriction of the rings with prostaglandin F2α (FIG. 5b). The hearts and aortic rings were treated with a range of concentrations of NO-Cbi (filled circles), nitroglycerin (open circles, dotted line, FIG. 5a), and sodium nitroprusside (open circles, FIG. 5b). Coronary flow was measured on the same hearts for both NO-Cbi and nitroglycerin after an appropriate wash-out period between drugs, and aortic ring relaxation was measured on two rings from the same aorta for NO-Cbi and sodium nitroprusside. The data are the mean of two independent experiments performed on two separate hearts in each experiment (FIG. 5a), and the mean±SEM of two independent experiments performed on three separate aortic rings in each experiment (FIG. 5b).
Coronary flow was measured in isolated perfused mouse hearts in a Langendorff system, and was 10.8±0.5 ml/min/g wet weight (n=7 hearts) under basal conditions. […] The latter value is similar to maximal coronary flow of 24.6±1.8 ml/min/g wet weight obtained with 62 μM adenosine. For nitroglycerin to increase coronary flow to that of NO-Cbi, the nitroglycerin concentration had to be increased to 770 μM, or about 100-fold greater than the NO-Cbi concentration (FIG. 5a).

rabbits = test: Continuous intravenous infusion in anesthetized rabbits: systemic hemodynamics and gas exchange; assay type: in vivo, rabbit
Method: NO-Cbi was given by intravenous infusion at a dose of 5 μg/kg/min (4.8 nmol/kg/min) to a 3.5 kg rabbit. […] The infusion was stopped at 10 minutes, but, because of drawing blood through the arterial line for blood gas analysis, the first measurement of blood pressure occurred 6 minutes later. Full recovery required 12 minutes, but it is possible that the initial rate of recovery was faster than shown in the graph. A small overshoot occurred in both systolic and diastolic blood pressure, before returning to pre-treatment levels.
Continuous intravenous NO-Cbi infusions were performed in anesthetized rabbits with systemic hemodynamic monitoring, continuous gas exchange analysis, and diffuse optical spectroscopy (DOS) and continuous wave near-infrared spectroscopy monitoring. DOS monitoring was over muscle as a representation of peripheral tissue, and continuous wave spectroscopy was over muscle and brain region. Six animals have been studied to date, varying NO-Cbi infusion rates in each animal between 1.7 and 6.9 μg/kg/min (1.6 and 6.7 nmol/kg/min).
The blood pressure of rabbits is similar to that of humans, but because of anesthesia, initial blood pressures in the rabbits were on average ˜80/60 mm Hg (FIG. 6). […] Blood pressure returned to baseline within 12 minutes of stopping the infusion, and starting and stopping the infusion repeatedly yielded similar results.

[2] = continuous gas exchange monitoring

Which “systolic and diastolic blood pressure” value (mice; 0.8 μmol (100 μl of 8 mM) intraperitoneally, anesthetized mice) does the source give for `CC1=C2[N+]3=C(C=C4[N+]5=C(C(C)=C6[N]7C(C(CC(N)=O)C6(C)CCC(=O)NCC(C)O)C6(C)[N+](=C1C(CCC(N)=O)C6(C)CC(N)=O)[Co-3]753[N]=O)C(CCC(N)=O)C4(C)C)C(CCC(N)=O)C2(C)CC(N)=O` (stereo not drawn) [NO-Cbi, nitrosyl cobinamide] here?
Its value is “rapidly reduced”.

What about the “increase of pulse rate compared with nitroglycerin” value (mice; 0.8 μmol intraperitoneally) of the same compound?
The value was “more pronounced than that observed with nitroglycerin”.

What about the “time required for blood pressure to return to control values” (mice; 0.8 μmol intraperitoneally) of the same compound?
Its value is roughly 45 min.

What about the “blood pressure reduction compared with nitroglycerin” value (mice; equimolar amounts, intraperitoneally) of the same compound?
Its value is “reduced blood pressure more potently than an equimolar amount of nitroglycerin”.

What about the “half-life of NO-Cbi in the mice” value (mice; mouse, in vivo) of the same compound?
Its value is 30 to 60 min.

And the “pulse rate above control values” (mice; until 75 minutes)?
Its value is “more than 10%”.

And the “injected NO recovered as nitrite and nitrate” value (D. melanogaster)?
Its value is “over 50%”.

And the “time of maximum nitrite/nitrate levels” value (D. melanogaster)?
Its value is 1 h.

And the “time of return of nitrite/nitrate levels to that of water-injected flies” value (D. melanogaster)?
Its value is 4 to 5 h.

What about the half-life [1] of the same compound?
Its half-life is “short”.

And the “low concentration that significantly increased coronary flow” value (isolated mouse hearts)?
Its value is 20 nM.

What about the coronary flow (isolated mouse hearts; 7 μM infused) of the same compound?
The coronary flow was 22.8±1.2 ml/min/g wet weight.

What about the “increase of coronary flow” value (isolated mouse hearts; 7 μM infused) of the same compound?
The value was “more than two-fold”.

What about the “time to new steady-state of blood pressure” value (rabbits; 5 μg/kg/min intravenous infusion) of the same compound?
Its value is 5 min.

And the “time until systolic and diastolic blood pressures began to decrease” value (rabbits; 5 μg/kg/min intravenous infusion, 3.5 kg rabbit)?
Its value is no more than 15 s.

And the “time required for full recovery of blood pressure” value (rabbits; 5 μg/kg/min, infusion stopped at 10 minutes)?
The value was 12 min.

And the arterial-venous oxygen differences (rabbits; [2])?
Its arterial-venous oxygen differences is “increased arterial-venous oxygen differences”.

What about the “end tidal CO2” value (rabbits; [2]) of the same compound?
The value was “decreased end tidal CO2”.

And the “effects on blood pressure compared with nitroprusside” value (rabbits; equimolar amounts)?
Its value is “more rapid and pronounced than those with equimolar amounts of nitroprusside”.

What about the “cardiac output (direct Fick method)” value (rabbits; intravenous infusion) of the same compound?
The value was “decreased”.

And the heart rate (rabbits; intravenous infusion)?
The heart rate was “did not change significantly”.

And the “time for blood pressure to return to baseline after stopping the infusion” value (rabbits; intravenous infusion)?
Its value is no more than 12 min.

And the blood pressure (rabbits; intravenous infusion 1.7 to 6.9 μg/kg/min)?
Its blood pressure is “marked infusion-rate-dependent decrease in blood pressure”.

What about the “physiological half-life of NO-Cbi” value (rabbits; suggested by return of blood pressure) of the same compound?
Its value is 5-6 minutes.
